Data as given in US20130096021A1, “RECURRENT GENE FUSIONS IN BREAST CANCER” (priority 2011, published 2013).

Assays:
Notch signaling pathway = test: Notch reporter luciferase assay after DAPT treatment; type: cell-based, human; details: lysates 24 hours after DAPT
Protocol: Breast cancer cells were seeded into 24-well dishes in triplicate and allowed to attach overnight. Cells were then infected with a Notch-reporter construct Lenti-RBPJ-firefly luciferase together with a Lenti-CMV-Renilla luciferase control (SABiosciences/QIAGEN). The two lentiviral stocks were mixed at a ratio of 50 Notch reporters to 1 CMV control and a single mixture was used to infect all recipient cell lines at a MOI of 100. Following incubation for 48 hours, cell lysates were prepared and measured for Notch activity using Promega Dual Luciferase reagents and Passive Lysis Buffer. Firefly luciferase levels were normalized using corresponding Renilla luciferase levels for each cell line. To confirm that Notch pathways are activated in the index cell lines through Notch gene rearrangements, the activated NOTCH1 and NOTCH2 alleles were cloned from HCC1599, HCC2218, and HCC1187 into a pcDNA3.1 vector. These expression constructs, pcDNA3.1-1599-NOTCH1, pcDNA3.1-2218-NOTCH1, and pcDNA3.1-1187-NOTCH2 and positive control NOTCH1-NICD, were individually transfected into 293T cells along with the pGL4-RBPJ-4X reporter plasmid and pTKRenilla luciferase control plasmid. Cells were harvested for luciferase activity assays 24 hours after transfection and assayed as above.
Notch fusion alleles provide a target for therapeutic intervention. The three characterized Notch fusions represent two functional classes. The first class, exemplified by the HCC2218 and HCC1599 fusions, produces a protein similar to that produced by the ADAM17/TACE catalyzed S2 cleavage, which occurs during ligand activation of the Notch pathway. The second class, exemplified by the HCC1187 fusion, produces a protein similar to the NICD produced after cleavage at S3 by γ-secretase. […] Each of the three cell lines was treated with the γ-secretase inhibitor DAPT 31, and luciferase activity was measured in cell lysates 24 hours later. […] A panel of six breast cell lines were treated with DAPT at 0, 0.3, 1, and 3 μM, and cell proliferation was measured using a WST-1 assay over a six day time course.

[1] = test system: γ-secretase-cleaved NOTCH1 (NICD); test: Western blot of NICD levels after DAPT treatment; type: cell-based, human
Protocol: For MAST2 fusion protein detection, cell pellets were sonicated in NP40 lysis buffer (50 mM Tris-HCl, 1% NP40, pH 7.4, Sigma), complete protease inhibitor mixture (Roche) and phosphatase inhibitor (EMD bioscience) Immunoblot analysis for MAST2 was carried out using MAST2 antibody from Novus Biologicals. Human β-actin antibody (Sigma) was used as a loading control. For NOTCH1 protein detection, cells were lysed in RIPA buffer containing protease inhibitor cocktail (Pierce). Proteins were separated by SDS-PAGE, transferred to nitrocellulose membranes and probed with antibodies recognizing total NOTCH1 (Cell Signaling), γ-secretase-cleaved NOTCH1 (NICD, Cell Signaling), or beta-actin (Santa Cruz). The signal was detected by chemiluminescence using Immun-Star Western C reagents (Bio-Rad).
Notch fusion alleles provide a target for therapeutic intervention. The three characterized Notch fusions represent two functional classes. […] Each of the three cell lines was treated with the γ-secretase inhibitor DAPT 31, and luciferase activity was measured in cell lysates 24 hours later. […] A panel of six breast cell lines were treated with DAPT at 0, 0.3, 1, and 3 μM, and cell proliferation was measured using a WST-1 assay over a six day time course.

[2] = test system: Notch target genes CCND1, MYC, and HEY1; test: Expression of Notch target genes after DAPT treatment; type: cell-based, human; details: 24-hour time course, cell lines with γ-secretase dependent Notch fusions
HCC2218 cells = test: WST-1 cell proliferation assay with DAPT; type: cell-based, human; details: DAPT 0.3, 1, and 3 μM, six day time course
Protocol: (§1) For cell proliferation assays, cells were seeded into 96-well plates in triplicate and allowed to attach overnight before drug treatment. The γ-secretase inhibitor DAPT (EMD Biosciences) was added to the cultures the next day at concentrations of 0, 0.3, 1, and 3 μM. Relative cell numbers were measured by WST-1 assays at indicated time points following the manufacturer's instructions (Roche).
(§2) Notch fusion alleles provide a target for therapeutic intervention. The three characterized Notch fusions represent two functional classes. The first class, exemplified by the HCC2218 and HCC1599 fusions, produces a protein similar to that produced by the ADAM17/TACE catalyzed S2 cleavage, which occurs during ligand activation of the Notch pathway. The second class, exemplified by the HCC1187 fusion, produces a protein similar to the NICD produced after cleavage at S3 by γ-secretase. The first class requires cleavage at S3 site by γ-secretase to release NICD, and thus would be expected to be sensitive to γ-secretase inhibitors (GSIs). The second class would be unaffected by GSIs, as the fusion generates an ORF similar to NICD. To test this, stable Notch reporter cell lines were established from each of the three Notch fusion positive carcinoma lines by infection with a lentivirus carrying the Notch responsive promoter driving firefly luciferase. Each of the three cell lines was treated with the γ-secretase inhibitor DAPT 31, and luciferase activity was measured in cell lysates 24 hours later. […] A panel of six breast cell lines were treated with DAPT at 0, 0.3, 1, and 3 μM, and cell proliferation was measured using a WST-1 assay over a six day time course.

HCC1599 cells = test: WST-1 cell proliferation assay with DAPT; type: cell-based, human; details: DAPT 0.3, 1, and 3 μM, six day time course
Protocol: as §1, §2

HCC1187 cells = test: WST-1 cell proliferation assay with DAPT; type: cell-based, human; details: DAPT 0.3, 1, and 3 μM, six day time course
Protocol: as §1, §2

[3] = test system: other breast cell lines not expressing Notch fusion alleles; test: WST-1 cell proliferation assay with DAPT; type: cell-based, human; details: DAPT 0.3, 1, and 3 μM, six day time course
Protocol: as §1, §2

Protocol for HCC1599 xenograft: Four week-old female SCID C.B17 mice were procured from a breeding colony at University of Michigan. […] Mice were anesthetized using a cocktail of xylazine (80 mg/kg IP) and ketamine (10 mg/kg IP) for chemical restraint. MAST2 shRNA or scrambled shRNA knockdown MDA-MB-468 breast cancer cells (4 million) or NOTCH1 fusion allele positive HCC1599 breast cancer cell line (5 million) were resuspended in 100 ul of 1×PBA with 20% Matrigel (BD Biosciences) and implanted into right and left abdominal-inguinal mammary fat. Ten mice were included in each group. Two weeks after tumor implantation, HCC1599 xenograted mice were treated with γ-secretase inhibitor (DAPT) dissolved in 5% ethanol in corn oil (IP). Mice in control group also received 5% ethanol in corn oil as vehicle control. Tumor growth was recorded weekly by using digital calipers and tumor volumes were calculated using the formula (R/6) (L×W2), where L=length of tumor and W=width.
This was tested further by establishing a xenograft tumor model of HCC1599 in immunodeficient mice.

C[C@H](NC(=O)Cc1cc(F)cc(F)c1)C(=O)N[C@H](C(=O)OC(C)(C)C)c1ccccc1 [DAPT, N—[N-(3,5-difluorophenacetyl)-L-alanyl]-S-phenylglycine t-butyl ester]
Notch reporter activity (luciferase) (Notch signaling pathway; HCC1187 stable Notch reporter line): only slightly diminished | Notch reporter activity (luciferase) (Notch signaling pathway; HCC1599 stable Notch reporter line): dramatic reduction | Notch reporter activity (luciferase) (Notch signaling pathway; HCC2218 stable Notch reporter line): dramatic reduction | NICD levels (Western blot) ([1]; HCC1599 cells after DAPT treatment): nearly complete elimination | NICD levels (Western blot) ([1]; HCC2218 cells after DAPT treatment): dramatically reduced | Notch target gene expression [2]: repressed | cell proliferation (HCC2218 cells): significant reduction in proliferation | cell proliferation (HCC1599 cells): dramatic reduction in proliferation | cell proliferation (HCC1187 cells): no reduction in proliferation | cell proliferation [3]: no reduction in proliferation | tumor volume (HCC1599 xenograft; HCC1599 xenograft in immunodeficient mice, DAPT IP, versus untreated controls): significantly reduced | overall body weight (HCC1599 xenograft; mouse, in vivo): No effect
